These are literature values, as cited in patent publication US8324220B2 (priority 2003, dated 2012).

Each structure is given as a SMILES string. Some results are limits rather than exact numbers.

As usually defined, the IC50 is the point on the concentration scale where inhibition reaches its midpoint.

For one series, the system named is neuropathic pain. The following applies: human, in vivo.
For the next series, the target named is NaV1.2 (Homo sapiens, UniProt Q99250). The following applies: read-out: TTX IC50.
Another series addresses NaV1.6 (Homo sapiens, UniProt Q9UQD0). The conditions noted are these: read-out: TTX IC50.
A further series addresses NaV1.1 (Homo sapiens, UniProt P35498). The conditions noted are these: read-out: TTX IC50.
The target of the next series is NaV1.9 (Homo sapiens, UniProt Q9UI33).
Chain of NaV1.9 (Q9UI33 whole entry, looked up): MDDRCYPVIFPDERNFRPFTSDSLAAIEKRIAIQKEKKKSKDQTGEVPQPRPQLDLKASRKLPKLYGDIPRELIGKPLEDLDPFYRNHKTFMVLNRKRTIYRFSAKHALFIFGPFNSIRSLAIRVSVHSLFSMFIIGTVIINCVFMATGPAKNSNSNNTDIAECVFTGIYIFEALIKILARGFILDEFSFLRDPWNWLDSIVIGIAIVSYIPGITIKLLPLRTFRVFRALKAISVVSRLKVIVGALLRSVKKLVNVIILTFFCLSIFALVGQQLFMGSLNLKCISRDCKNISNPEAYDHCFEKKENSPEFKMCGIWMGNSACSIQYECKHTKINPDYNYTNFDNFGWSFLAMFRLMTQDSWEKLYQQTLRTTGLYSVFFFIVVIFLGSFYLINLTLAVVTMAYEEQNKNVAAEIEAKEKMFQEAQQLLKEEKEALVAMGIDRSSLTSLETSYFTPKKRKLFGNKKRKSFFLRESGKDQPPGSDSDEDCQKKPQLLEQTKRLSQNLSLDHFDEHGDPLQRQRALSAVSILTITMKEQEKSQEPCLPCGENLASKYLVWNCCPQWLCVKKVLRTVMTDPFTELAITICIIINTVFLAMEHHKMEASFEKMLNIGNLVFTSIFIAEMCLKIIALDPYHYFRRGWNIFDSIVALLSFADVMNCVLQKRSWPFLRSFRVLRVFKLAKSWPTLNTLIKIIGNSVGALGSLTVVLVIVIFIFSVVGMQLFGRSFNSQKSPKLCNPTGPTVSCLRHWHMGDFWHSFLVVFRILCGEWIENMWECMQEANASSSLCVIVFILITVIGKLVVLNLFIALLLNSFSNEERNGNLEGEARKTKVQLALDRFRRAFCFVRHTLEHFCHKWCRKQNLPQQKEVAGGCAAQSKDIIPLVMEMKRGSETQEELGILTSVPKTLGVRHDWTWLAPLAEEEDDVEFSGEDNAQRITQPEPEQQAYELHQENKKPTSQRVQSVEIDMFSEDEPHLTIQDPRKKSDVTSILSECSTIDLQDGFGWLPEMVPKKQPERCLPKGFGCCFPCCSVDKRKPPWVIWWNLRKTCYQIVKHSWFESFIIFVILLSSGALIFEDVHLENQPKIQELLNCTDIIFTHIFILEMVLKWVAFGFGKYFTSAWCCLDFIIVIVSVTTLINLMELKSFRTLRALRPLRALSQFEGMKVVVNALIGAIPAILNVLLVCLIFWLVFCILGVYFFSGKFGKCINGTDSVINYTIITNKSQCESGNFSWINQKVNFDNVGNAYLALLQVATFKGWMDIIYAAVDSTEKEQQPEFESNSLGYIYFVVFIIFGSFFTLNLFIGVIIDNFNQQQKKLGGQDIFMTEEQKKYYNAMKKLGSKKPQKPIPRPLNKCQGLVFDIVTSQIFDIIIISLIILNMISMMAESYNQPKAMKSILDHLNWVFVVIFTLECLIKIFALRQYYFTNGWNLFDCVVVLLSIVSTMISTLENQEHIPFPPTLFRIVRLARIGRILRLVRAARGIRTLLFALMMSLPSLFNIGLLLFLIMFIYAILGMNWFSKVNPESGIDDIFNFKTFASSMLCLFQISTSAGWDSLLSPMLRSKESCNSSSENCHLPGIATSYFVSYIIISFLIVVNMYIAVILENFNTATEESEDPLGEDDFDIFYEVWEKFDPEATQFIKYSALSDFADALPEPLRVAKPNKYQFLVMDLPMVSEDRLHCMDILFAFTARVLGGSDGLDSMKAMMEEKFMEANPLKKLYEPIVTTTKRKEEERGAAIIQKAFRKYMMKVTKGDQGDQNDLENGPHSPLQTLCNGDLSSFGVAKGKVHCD
In a further series the target is NaV1.3 (Homo sapiens, UniProt Q9NY46). The following applies: read-out: TTX IC50.
The next series has as its target NaV1.8 (Homo sapiens, UniProt Q9Y5Y9).
A further series deals with NaV1.5 (Homo sapiens, UniProt Q14524).

Chain of NaV1.8 (Q9Y5Y9 whole entry, looked up): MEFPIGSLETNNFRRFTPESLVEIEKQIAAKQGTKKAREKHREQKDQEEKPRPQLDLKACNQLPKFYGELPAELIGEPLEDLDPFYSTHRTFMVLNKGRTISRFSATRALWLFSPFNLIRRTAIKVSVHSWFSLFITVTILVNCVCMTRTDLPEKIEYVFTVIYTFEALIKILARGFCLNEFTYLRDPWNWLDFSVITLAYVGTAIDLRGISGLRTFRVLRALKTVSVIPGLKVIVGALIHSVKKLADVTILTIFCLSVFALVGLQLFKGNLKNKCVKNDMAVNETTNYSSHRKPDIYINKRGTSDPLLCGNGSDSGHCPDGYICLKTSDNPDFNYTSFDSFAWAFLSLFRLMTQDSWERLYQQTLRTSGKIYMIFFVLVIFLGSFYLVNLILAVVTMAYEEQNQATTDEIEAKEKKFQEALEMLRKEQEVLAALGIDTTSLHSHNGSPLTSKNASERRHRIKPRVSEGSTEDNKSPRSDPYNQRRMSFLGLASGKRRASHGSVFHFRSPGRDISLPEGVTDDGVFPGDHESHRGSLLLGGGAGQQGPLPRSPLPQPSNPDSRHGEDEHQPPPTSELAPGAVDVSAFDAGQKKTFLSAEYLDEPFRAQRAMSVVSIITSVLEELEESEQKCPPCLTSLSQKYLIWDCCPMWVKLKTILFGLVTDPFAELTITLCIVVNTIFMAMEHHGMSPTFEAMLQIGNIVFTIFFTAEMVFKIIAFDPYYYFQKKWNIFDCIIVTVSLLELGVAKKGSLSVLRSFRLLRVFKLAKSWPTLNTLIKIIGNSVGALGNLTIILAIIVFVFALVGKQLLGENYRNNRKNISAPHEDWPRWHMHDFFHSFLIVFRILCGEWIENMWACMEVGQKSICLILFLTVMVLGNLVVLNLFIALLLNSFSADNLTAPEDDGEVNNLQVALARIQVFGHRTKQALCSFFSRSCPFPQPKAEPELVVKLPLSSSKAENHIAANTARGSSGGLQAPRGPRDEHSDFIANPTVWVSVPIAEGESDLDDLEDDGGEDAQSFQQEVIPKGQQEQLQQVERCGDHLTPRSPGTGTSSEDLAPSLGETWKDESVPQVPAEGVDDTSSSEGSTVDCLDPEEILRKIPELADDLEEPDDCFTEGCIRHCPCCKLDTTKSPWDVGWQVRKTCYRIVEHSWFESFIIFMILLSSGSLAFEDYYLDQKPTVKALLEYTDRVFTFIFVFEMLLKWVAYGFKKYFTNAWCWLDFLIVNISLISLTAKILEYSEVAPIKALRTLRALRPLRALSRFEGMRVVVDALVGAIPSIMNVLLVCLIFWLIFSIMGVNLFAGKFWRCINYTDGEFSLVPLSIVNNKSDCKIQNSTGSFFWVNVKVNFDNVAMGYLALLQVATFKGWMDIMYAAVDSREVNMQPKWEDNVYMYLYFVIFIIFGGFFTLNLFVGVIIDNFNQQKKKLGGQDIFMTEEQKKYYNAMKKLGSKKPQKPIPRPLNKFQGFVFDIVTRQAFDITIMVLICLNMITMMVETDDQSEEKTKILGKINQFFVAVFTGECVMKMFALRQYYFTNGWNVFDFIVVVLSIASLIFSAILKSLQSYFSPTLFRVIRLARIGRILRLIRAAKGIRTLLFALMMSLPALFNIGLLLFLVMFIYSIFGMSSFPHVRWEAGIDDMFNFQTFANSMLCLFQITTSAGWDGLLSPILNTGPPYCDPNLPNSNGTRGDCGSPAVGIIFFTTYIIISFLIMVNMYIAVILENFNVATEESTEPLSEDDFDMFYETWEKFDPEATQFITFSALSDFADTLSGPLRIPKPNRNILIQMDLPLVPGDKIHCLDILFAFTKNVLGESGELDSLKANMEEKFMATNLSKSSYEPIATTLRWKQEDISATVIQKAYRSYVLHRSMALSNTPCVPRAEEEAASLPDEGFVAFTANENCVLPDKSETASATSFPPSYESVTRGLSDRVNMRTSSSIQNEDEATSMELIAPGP

For `NCC1(CC(=O)O)CCCCC1` [Gabapentin], the “share of patients in which the drug works” value in the series on neuropathic pain is reported as 60%.

In the case of `NC1=N[C@H](O)[C@H]2[C@H]3O[C@]4(O)O[C@@H]([C@@H](O)[C@@]2(N1)[C@@H]4O)[C@]3(O)CO` [TTX, tetrodotoxin], the IC50 at NaV1.2 is 10 nM; on NaV1.6, 6 nM; on NaV1.1 it was 10 nM; at NaV1.9 (read-out: TTX IC50), 1000 nM; at NaV1.3 it was 15 nM; at NaV1.8 (read-out: TTX IC50), greater than 50000 nM. Besides, the “block by TTX” value on NaV1.9, at NaV1.8 and at NaV1.5 was “resistant to block” in each case.
